Results from publication PMC5596636 (ACS chemical neuroscience, 2016).
“Also recorded” adds a separate entry of the source.

Assays:
hMC4R [1] = conditions: cited from earlier work
hMC4R [2] = conditions: cited from earlier work; remark: listed apart in the source
hMC1R [3] = conditions: COS cell-line expressing human melanocortin receptors; cited from earlier work
hMC3R = conditions: COS cell-line expressing human melanocortin receptors; cited from earlier work
mMC1R [4] = molecular target: T1, mMC1R (Mus musculus, UniProt Q01727); assay: cAMP-based β-galactosidase reporter agonist assay in HEK293 cells, mMC1R; conditions: EC50 of substituted peptide divided by EC50 of NDP-MSH; potency loss
T1 sequence (Q01727 whole entry): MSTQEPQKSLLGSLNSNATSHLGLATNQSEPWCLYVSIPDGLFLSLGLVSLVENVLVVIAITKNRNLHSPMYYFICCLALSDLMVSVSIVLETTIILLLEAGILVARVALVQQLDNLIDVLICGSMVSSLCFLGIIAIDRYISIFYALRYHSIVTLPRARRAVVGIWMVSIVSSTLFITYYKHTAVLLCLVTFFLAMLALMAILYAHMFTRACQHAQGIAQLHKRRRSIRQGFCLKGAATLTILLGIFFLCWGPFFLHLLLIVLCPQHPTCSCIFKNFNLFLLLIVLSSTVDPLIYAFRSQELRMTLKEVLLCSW

mMC3R [5] = molecular target: T2, mMC3R (Mus musculus, UniProt P33033); assay: cAMP-based β-galactosidase reporter agonist assay in HEK293 cells, mMC3R; conditions: for mMC3R fold difference: EC50 of substituted peptide divided by EC50 of NDP-MSH, potency loss
T2 sequence (P33033 whole entry): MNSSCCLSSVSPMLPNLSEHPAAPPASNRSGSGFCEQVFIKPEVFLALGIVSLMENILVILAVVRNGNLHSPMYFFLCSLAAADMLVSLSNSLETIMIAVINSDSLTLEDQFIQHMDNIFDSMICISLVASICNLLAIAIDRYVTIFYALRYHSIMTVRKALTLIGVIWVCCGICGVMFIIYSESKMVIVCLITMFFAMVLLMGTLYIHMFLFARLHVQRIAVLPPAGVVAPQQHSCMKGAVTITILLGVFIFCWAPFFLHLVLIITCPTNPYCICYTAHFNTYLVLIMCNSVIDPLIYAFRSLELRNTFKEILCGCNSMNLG

mMC4R [6] = molecular target: T3, mMC4R (Mus musculus, UniProt P56450); assay: cAMP-based β-galactosidase reporter agonist assay in HEK293 cells, mMC4R; conditions: EC50 of substituted peptide divided by EC50 of NDP-MSH; potency loss
T3 sequence (P56450 whole entry): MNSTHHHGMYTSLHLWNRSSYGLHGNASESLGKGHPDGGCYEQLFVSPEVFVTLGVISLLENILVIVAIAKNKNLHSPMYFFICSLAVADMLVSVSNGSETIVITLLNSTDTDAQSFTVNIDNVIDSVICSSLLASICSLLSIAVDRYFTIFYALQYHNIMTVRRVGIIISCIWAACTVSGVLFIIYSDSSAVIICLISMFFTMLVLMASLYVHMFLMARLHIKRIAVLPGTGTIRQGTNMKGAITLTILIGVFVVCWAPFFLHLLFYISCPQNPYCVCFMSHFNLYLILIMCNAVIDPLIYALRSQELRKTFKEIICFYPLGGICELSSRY

mMC5R [7] = molecular target: T4, mMC5R (Mus musculus, UniProt P41149); assay: cAMP-based β-galactosidase reporter agonist assay in HEK293 cells, mMC5R; conditions: EC50 of substituted peptide divided by EC50 of NDP-MSH; potency loss
T4 sequence (P41149 whole entry): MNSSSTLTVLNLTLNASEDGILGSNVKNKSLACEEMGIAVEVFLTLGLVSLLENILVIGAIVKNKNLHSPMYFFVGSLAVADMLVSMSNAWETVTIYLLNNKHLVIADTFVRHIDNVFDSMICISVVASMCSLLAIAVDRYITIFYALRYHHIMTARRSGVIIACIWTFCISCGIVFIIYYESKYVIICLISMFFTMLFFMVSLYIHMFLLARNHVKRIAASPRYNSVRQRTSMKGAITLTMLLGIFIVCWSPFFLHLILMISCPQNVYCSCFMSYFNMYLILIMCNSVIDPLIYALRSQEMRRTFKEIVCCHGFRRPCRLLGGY

hMC1R [8] = conditions: cited from earlier work
mMC1R [9] = molecular target: T1, mMC1R; conditions: cloned mouse receptors; cited from earlier work
mMC3R [10] = molecular target: T2, mMC3R; conditions: cloned mouse receptors; cited from earlier work
mMC4R [11] = molecular target: T3, mMC4R; conditions: cloned mouse receptors; cited from earlier work
mMC5R [12] = molecular target: T4, mMC5R; conditions: cloned mouse receptors; cited from earlier work

Row | Compound | fold decreased agonist potency at the hMC4R relative to NDP-MSH (hMC4R [1]) | efficacy relative to NDP-MSH at the hMC4R (hMC4R [2]) | fold agonist potency loss at the hMC4R relative to NDP-MSH (hMC4R [2]) | fold decreased binding affinity at the hMC1R (hMC1R [3]) | fold decreased binding affinity at the hMC3R (hMC3R) | mMC1R fold difference (mMC1R [4]) | EC50 (mMC3R [5]) | mMC3R fold difference (mMC3R [5]) | mMC4R fold difference (mMC4R [6]) | mMC5R fold difference (mMC5R [7]) | activation of the hMC4R (hMC4R [2]; at concentrations up to 100 μM) | agonist efficacy at the hMC1R (hMC1R [8]) | fold less potent than NDP-MSH at the hMC1R (hMC1R [8]) | agonist potency at the mMC1R (mMC1R [9]) | agonist potency at the mMC3R (mMC3R [10]) | agonist potency at the mMC4R (mMC4R [11]) | agonist potency at the mMC5R (mMC5R [12])
1 | CCCC[C@H](NC(=O)[C@H](CO)NC(=O)[C@H](Cc1ccc(O)cc1)NC(=O)[C@H](CO)NC(C)=O)C(=O)N[C@@H](CCC(=O)O)C(=O)N[C@@H](C)C(=O)N[C@H](Cc1ccccc1)C(=O)N[C@@H](CCCNC(=N)N)C(=O)N[C@@H](Cc1c[nH]c2ccccc12)C(=O)NCC(=O)N[C@@H](CCCCN)C(=O)N1CCC[C@H]1C(=O)N[C@H](C(N)=O)C(C)C [[Ala^6]NDP-MSH, Ac-Ser-Tyr-Ser-Nle-Glu-Ala-DPhe-Arg-Trp-Gly-Lys-Pro-Val-NH2] | 4 fold | 40% | equipotent | 8 fold | 6 fold | did not alter agonist potency | 0.55 ± 0.12 nM | did not alter agonist potency; also recorded: equipotency | did not alter agonist potency | did not alter agonist potency |  |  |  |  |  |  | 
2 | CCCC[C@H](NC(=O)[C@H](CO)NC(=O)[C@H](Cc1ccc(O)cc1)NC(=O)[C@H](CO)NC(C)=O)C(=O)N[C@@H](CCC(=O)O)C(=O)N[C@@H](Cc1c[nH]cn1)C(=O)N[C@H](Cc1ccccc1)C(=O)N[C@@H](CCCNC(=N)N)C(=O)N[C@@H](C)C(=O)NCC(=O)N[C@@H](CCCCN)C(=O)N1CCC[C@H]1C(=O)N[C@H](C(N)=O)C(C)C [[Ala^9]NDP-MSH, Ac-Ser-Tyr-Ser-Nle-Glu-His-DPhe-Arg-Ala-Gly-Lys-Pro-Val-NH2] |  |  |  |  |  | 180 fold | 295 ± 92 nM | 1230 fold | 2120 fold | 220 fold | not to activate | full agonist | 3 fold |  |  |  | 
3 | Ac-His-Phe-Arg-Trp-NH2 |  |  |  |  |  |  |  |  |  |  |  |  |  | micromolar potency | micromolar potency | micromolar potency | sub-micromolar potency
